ChEMBL document CHEMBL3351886
Activity calls are given as the source filed them. No cut-off for these calls is given here.

Key:
Assay type in all cases: cell-based
NG108-15 [1] = test: Agonist activity at AT2 receptor in rat and mouse hybridoma NG108-15 cells assessed as induction of neurite outgrowth at 100 nM after 3 days in presence of 1 uM AT2 receptor antagonist PD 123,319 by phase contrast microscopy
NG108-15 [2] = test: Agonist activity at AT2 receptor in rat and mouse hybridoma NG108-15 cells assessed as induction of neurite outgrowth at 100 nM after 3 days by phase contrast microscopy
NG108-15 [3] = test: Antagonist activity at AT2 receptor in rat and mouse hybridoma NG108-15 cells assessed as reduction in angiotensin-2-induced neurite outgrowth at 100 nM after 3 days by phase contrast microscopy

| SMILES | Activity (NG108-15 [1]) | Activity (NG108-15 [2]) | inhibition (NG108-15 [3]) |
| --- | --- | --- | --- |
| CNCC(=O)N[C@@H](CCCNC(=N)N)C(=O)N[C@H](C(=O)N[C@@H](Cc1ccc(O)cc1)C(=O)N[C@H](C(=O)N[C@@H](Cc1cnc[nH]1)C(=O)N1CCC[C@H]1C(=O)N[C@@H](C)C(=O)O)C(C)C)C(C)C | inactive | Active | inactive |
| CC[C@H](C)[C@H](NC(=O)[C@@H]1CCCN1C(=O)[C@H](Cc1c[nH]cn1)NC(=O)[C@@H](NC(=O)[C@H](Cc1ccc(O)cc1)NC(=O)[C@@H](NC(=O)[C@H](CCCN=C(N)N)NC(=O)CNC)C(C)C)[C@@H](C)CC)C(=O)O | inactive | Active | inactive |
| CC[C@H](C)[C@H](NC(=O)[C@H](Cc1ccc(O)cc1)NC(=O)[C@@H](NC(=O)[C@H](CCCNC(=N)N)NC(=O)[C@@H](N)CC(=O)O)C(C)C)C(=O)N[C@@H](Cc1cnc[nH]1)C(=O)N1CCC[C@H]1C(=O)N[C@@H](Cc1ccccc1)C(=O)O | inactive | Active | – |
